“Also recorded” adds a separate entry of the source.
Tests used:
[1] = test system: AUUUA RNA / RNA binding protein (K562 extract); assay: High throughput filter binding assay, 32P-labeled AUUUA RNA with K562 protein extract
Text: FIG. 7 is a graph of the amount of radioactively labeled RNA retained on a filter (expressed in percent of the amount of RNA retained on a filter in a reference binding solution) following loading of various binding solutions. All of the binding solutions contained radioactively labeled AUUUA RNA either alone or including various other components. The first column represents a binding solution without RNA binding protein. The remaining columns represent binding solution containing RNA binding protein (K562 extract). Columns 3 through 8 correspond to binding solutions including the indicated test compound.
(§1) All binding reactions are performed in 96-well polystyrene plates in a final volume of 10 or 100 μl. The assays were constituted and performed as described below. Specifically, assays were performed by (1) forming a binding solution including RNA molecules, 7.5 mM BTP at pH 8.5, 10 mM KCl, 5 mM MgCl2, 0.2 mM DTT, and 10% glycerol, (2) heating the binding solution to denature the RNA molecules, (3) cooling the binding solution, (4) adding RNA binding proteins to the binding solution, (5) loading the binding solution onto a filter, and (6) detecting the amount RNA retained on the filter. It is preferred that the samples be loaded on to a filter of either pure nitrocellulose or a mixed cellulose ester (MCA). It is also preferred that the filters have a 0.2μ pore size, although filters with a 0.45μ pore size will also bind the RNA/RNA binding protein complex. It is preferred that, prior to loading the binding solution onto a filter, the volume is increased. For this purpose, it is preferred that the dilution solution has the same buffer components as the binding solution except lacking the density agent. For a 10 μl volume it is preferred that the final volume be about 100 μl by addition of 1× binding buffer. It is also preferred that the binding solution be loaded onto the filter under vacuum. It is also preferred that the filter is washed twice prior to detecting the amount of RNA retained on the filter. Preferably the wash solution had the same composition as the dilution solution. However, TE (pH 8.0), PBS, or TCA can also be used as wash solutions. In most of the assays described below, the RNA molecules were labeled with ^32 P.
The library was initially screened at 10 μM against ^32 P-labeled AUUUA RNA. Several methods of introducing the compounds into the binding reaction were tested. Initially the compounds were coincubated with the RNA and protein, producing modest results. Next, preincubation with either the protein extract or the RNA was tried with improved results.
Seventeen compounds were chosen for further analysis at 100 nM, 1 μM and 10 μM using both AUUUA and IRE RNAs based on the results from four screening efforts (Exps. 29-31, 33). Table 2 summarizes the results from these compounds at 10 μM. The results are also shown graphically in FIG. 7. […] Compounds D9 and H2, chosen as negative controls from the initial screening, continued to have no effect in the dose dependent screen (Exp. 33) and were identified as vehicle controls.

TNF-α production = conditions: previously shown; cited from earlier work
[2] = test system: IRE RNA / RNA binding protein (K562 protein extract); assay: Filter binding assay, IRE RNA with K562 protein extract; conditions: hemin 1 to 100 μM; FeCl3 1 μM to 1 mM; desferroxiamine 1 μM to 1 mM
Text: FIG. 6 is a graph of the amount of radioactively labeled RNA retained on a filter (expressed in percent of the amount of RNA retained on a filter in a reference binding solution) following loading of various binding solutions. All of the binding solutions contained radioactively labeled IRE RNA either alone or including various other components. The first column represents a binding solution without RNA binding protein. The remaining columns represent binding solutions containing RNA binding protein (K562 extract). […] Desferal and des indicate that the binding solutions included the indicated amount of desferroxiamine as a test compound.
FIG. 8 is a graph of the amount of radioactively labeled RNA retained on a filter (expressed in percent of the amount of RNA retained on a filter in a reference binding solution) following loading of various binding solutions. Alternate columns correspond to binding solutions containing radioactively labeled AUUUA RNA or IRE RNA, either alone or including various other components. The first two column represents binding solutions without RNA binding protein. The remaining columns represent binding solution containing RNA binding protein (K562 extract). Columns 5 through 40 correspond to binding solutions including the indicated amount of the indicated test compound.
All binding reactions are performed in 96-well polystyrene plates in a final volume of 10 or 100 μl. The assays were constituted and performed as described below. […]
Binding assays were performed with wild-type IRE RNA and K562 protein extract in the presence of sources of iron or iron chelators to determine the ability of the filter assay to detect the modulation of binding interactions by small molecules. […] The reactions were analyzed by gel shifts to visualize the results of the filter assay.

[3] = test system: TNF-α 3' untranslated region / human cell RBP's; assay: High throughput screening assay, TNF-α 3' untranslated region with total protein extract; assay type: binding; conditions: TNF-α 3' UTR; for effect on TNF-α RNA/RBP interaction, in words: total protein extract; for EC50: read-out: EC50 on in vitro binding
Experimental: FIG. 9A is a graph of the level of RNA/RBP interactions (between the TNF-α 3' untranslated region and human cell RBP's) in the presence or absence of test compounds. […] The remaining columns include RNA plus extract in the presence of specific compounds.
as §1
This example describes identification of compounds which either increase or decrease the binding interaction between a site within an RNA molecule which interacts with an RBP. This example makes use of a total protein extract which allows identification of compounds that modulate interactions without the need for identification of the specific RBP(s) involved.

[4] = test system: iron response element RNA/RBP interaction; assay: Control assay using the iron response element (Example 4); assay type: binding; conditions: increasing concentrations; unrelated RNA specificity control
[5] = compound 10 μM, RNA & K562 = 100.00

## CC(=NNC(=N)N)c1cc(NC(=O)CCCCCCCCC(=O)Nc2cc(C(C)=NNC(=N)N)cc(C(C)=NNC(=N)N)c2)cc(C(C)=NNC(=N)N)c1 [Compound G10, CNI-1493]
[1]; 10 μM, AUUUA RNA
  effect on counts (AUUUA RNA binding), in words: substantial increase in counts in 3 of the 4 experiments
[1]; [5]
  Avg. % (labeled AUUUA RNA retained on filter, average of Experiments #33, #31, #30, #29): 111.00%
  Labeled AUUUA RNA retained on filter, percent of RNA & K562 control, Experiment #29: 114.53%
  Labeled AUUUA RNA retained on filter, percent of RNA & K562 control, Experiment #30: 66.94%
  Labeled AUUUA RNA retained on filter, percent of RNA & K562 control, Experiment #31: 127.28%
  Labeled AUUUA RNA retained on filter, percent of RNA & K562 control, Experiment #33: 135.24%
TNF-α production
  effect on TNF-α production, in words: post-transcriptionally inhibit TNF-α production

## CC(=O)N(O)CCCCCNC(=O)CCC(=O)N(O)CCCCCNC(=O)CCC(=O)N(O)CCCCCN [Desferroxiamine, desferroxiamine]
[2]
  modulation of IRE/protein binding by iron sources or iron chelator, in words: did not change the amount IRE/protein complex formed

## [Cl][Fe]([Cl])[Cl] [FeCl3]
[2]
  modulation of IRE/protein binding by iron sources or iron chelator, in words: concentration-dependent inhibition of binding

## O=[N+]([O-])c1ccc(C(Cl)=NCCCN=Cc2ccc3c(c2)OCO3)cc1 [SYM 1301]
[3]
  effect on TNF-α RNA/RBP interaction, in words: no effect

## Cc1c(CCN)c2c3n1CCCC3CCC2 (centres unmarked) [SYM 1405]
[3]
  inhibition of binding: about 40%
  effect on TNF-α RNA/RBP interaction, in words: inhibited binding of TNF-α in a concentration-dependent manner; also recorded: concentration-dependent inhibition
  EC50: ~2 µM
[4]
  effect on iron response element binding, in words: little effect on the iron response element

## CC(=NNC(=N)N)c1cc(NC(=O)CCCCCCC(=O)Nc2cc(C(C)=NNC(=N)N)cc(C(C)=NNC(=N)N)c2)cc(C(C)=NNC(=N)N)c1 [SYM 1710]
[3]
  potentiation of binding: approximately 3 fold
  EC50: 23 µM

## hemin
[2]
  modulation of IRE/protein binding by iron sources or iron chelator, in words: concentration-dependent inhibition of binding

From patent US6004749A, “Method for identifying compounds affecting RNA/RNA binding protein interactions” (Message Pharmaceuticals, priority 1997, dated 1999)
